Assay results reported in PubChem BioAssay AID256 (DTP/NCI, 2004).
Inconclusive results and toxic doses are left out. How the source made its calls: active means survival T/C of 150% or more; inactive means T/C below 125% in these data.

Tested on: CD2F1 mice, L1210 leukemia ip, survival T/C
Experiment: NCI In Vivo Anticancer Drug Screen. Data for tumor model L1210 Leukemia (intraperitoneal) in CD2F1 (CDF1) mice
Settings: endpoint: mean survival time, higher = longer survival
Procedure, shortened: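 Read-out first: treated-group measurement over vehicle-control measurement, expressed as a ratio. Animals bore a transplanted tumor line and were dosed with compound or vehicle.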

[1] = dose: 50.0 mg/kg/injection, schedule: Q04DX002 (ip), vehicle: saline
[2] = dose: 100.0 mg/kg/injection, schedule: Q04DX002 (ip), vehicle: saline
[3] = dose: 100.0 mg/kg/injection, schedule: Q01DX009 (ip), vehicle: saline with Tween-80
[4] = dose: 100.0 mg/kg/injection, schedule: Q04DX003 (ip), vehicle: saline with Tween-80
[5] = dose: 200.0 mg/kg/injection, schedule: Q04DX003 (ip), vehicle: saline with Tween-80
[6] = dose: 400.0 mg/kg/injection, schedule: Q04DX003 (ip), vehicle: saline with Tween-80

Measured: T/C

CN1CC(=O)n2c(cc3ccccc32)C1=O
inactive: [1] 101 % of control | [2] 86 % of control | dose: 200.0 mg/kg/injection, schedule: Q04DX002 (ip), vehicle: saline 93 % of control | dose: 400.0 mg/kg/injection, schedule: Q04DX002 (ip), vehicle: saline 101 % of control

COc1cc(/C=N\Nc2ccccc2[N+](=O)[O-])cc(OC)c1OC
inactive: [3] 93 % of control | dose: 200.0 mg/kg/injection, schedule: Q01DX009 (ip), vehicle: saline with Tween-80 103 % of control | dose: 400.0 mg/kg/injection, schedule: Q01DX009 (ip), vehicle: saline with Tween-80 98 % of control

O=C(NC(=O)c1ccccc1)NC1=C(Cl)C(=O)c2ccccc2C1=O
inactive: dose: 100.0 mg/kg/injection, schedule: Q01DX001 (ip), vehicle: other 106 % of control | dose: 200.0 mg/kg/injection, schedule: Q01DX001 (ip), vehicle: other 104 % of control | dose: 400.0 mg/kg/injection, schedule: Q01DX001 (ip), vehicle: other 109 % of control

O=CNCCc1ccc2c(c1)[nH]c1ccccc12
inactive: dose: 100.0 mg/kg/injection, schedule: Q01DX001 (ip), vehicle: saline 95 % of control | dose: 200.0 mg/kg/injection, schedule: Q01DX001 (ip), vehicle: saline 98 % of control | dose: 400.0 mg/kg/injection, schedule: Q01DX001 (ip), vehicle: saline 98 % of control

Cc1c(N=[N+]=[N-])c(NS(=O)(=O)c2ccccc2)c(C)c(N=[N+]=[N-])c1NS(=O)(=O)c1ccccc1
inactive: [4] 96 % of control | [5] 93 % of control | [6] 93 % of control

Cn1c(=O)c2c(nc(-[n+]3ccccc3)n2C)n(C)c1=O
inactive: dose: 12.5 mg/kg/injection, schedule: Q01DX005 (ip), vehicle: water 94 % of control | dose: 25.0 mg/kg/injection, schedule: Q01DX005 (ip), vehicle: water 100 % of control | dose: 50.0 mg/kg/injection, schedule: Q01DX005 (ip), vehicle: water 103 % of control | dose: 100.0 mg/kg/injection, schedule: Q01DX005 (ip), vehicle: water 103 % of control | dose: 200.0 mg/kg/injection, schedule: Q01DX005 (ip), vehicle: water 120 % of control

COc1cc(/C=C/C(C)=N/Nc2ccc([N+](=O)[O-])cc2[N+](=O)[O-])ccc1O
inactive: [4] 95 % of control | [5] 94 % of control | [6] 95 % of control

CCOC(=O)c1[nH]c(=S)n(Cc2ccccc2)c1C(=O)OCC
inactive: dose: 50.0 mg/kg/injection, schedule: Q04DX003 (ip), vehicle: saline with Tween-80 103 % of control | [4] 108 % of control | [5] 97 % of control

C=CC1(C)CCN=C(CCC(C(=O)OCC)C(=O)OCC)O1 (stereo not given)
inactive: dose: 100.0 mg/kg/injection, schedule: Q01DX001 (ip), vehicle: saline sonified 103 % of control | dose: 200.0 mg/kg/injection, schedule: Q01DX001 (ip), vehicle: saline sonified 97 % of control | dose: 400.0 mg/kg/injection, schedule: Q01DX001 (ip), vehicle: saline sonified 100 % of control

CC1=CC=CC(C)(C(Cl)Cl)C1=O (stereo not given)
inactive: dose: 50.0 mg/kg/injection, schedule: Q01DX009 (ip), vehicle: saline with Tween-80 97 % of control | [3] 89 % of control | [4] 96 % of control | [5] 103 % of control | dose: 1200.0 mg/kg/injection, schedule: Q01DX009 (ip), vehicle: saline with Tween-80 93 % of control

CC1C(N2CCCCC2)CS1(=O)=O (stereo not given)
inactive: dose: 25.0 mg/kg/injection, schedule: Q04DX002 (ip), vehicle: saline 104 % of control | [1] 101 % of control | [2] 108 % of control

CN1COc2cc3c(cc2C1)OCN(C)C3
inactive: dose: 100.0 mg/kg/injection, schedule: Q01DX001 (ip), vehicle: saline with Tween-80 100 % of control | dose: 200.0 mg/kg/injection, schedule: Q01DX001 (ip), vehicle: saline with Tween-80 100 % of control
